The target in one experiment is T1, TRKA (Homo sapiens, UniProt P04629).
T1 construct: purchased Eurofins DiscoverX KINOMEscan (scanTK)
The experiment can be described thus: KINOMEscan ScanTK. It is filed as binding.

The target of the next experiment is T2, HCK (Homo sapiens, UniProt P08631).
T2 construct: purchased Eurofins DiscoverX KINOMEscan (scanTK)
The experiment is described as follows: KINOMEscan ScanTK. It is filed as binding.

A further experiment concerns the target T3, ERBB2 (Homo sapiens, UniProt P04626).
T3 construct: purchased Eurofins DiscoverX KINOMEscan (scanTK)
The experiment can be described thus: KINOMEscan ScanTK. The format is binding. The settings on record: for remaining binding at 1 µM / difference in %Control versus compound Ib at 1 µM: ERBB2.

The next experiment concerns the target T4, CSF1R-autoinhibited (Homo sapiens, UniProt P07333).
T4 construct: purchased Eurofins DiscoverX KINOMEscan (scanTK)
T4 sequence (P07333 539-972 limits assumed): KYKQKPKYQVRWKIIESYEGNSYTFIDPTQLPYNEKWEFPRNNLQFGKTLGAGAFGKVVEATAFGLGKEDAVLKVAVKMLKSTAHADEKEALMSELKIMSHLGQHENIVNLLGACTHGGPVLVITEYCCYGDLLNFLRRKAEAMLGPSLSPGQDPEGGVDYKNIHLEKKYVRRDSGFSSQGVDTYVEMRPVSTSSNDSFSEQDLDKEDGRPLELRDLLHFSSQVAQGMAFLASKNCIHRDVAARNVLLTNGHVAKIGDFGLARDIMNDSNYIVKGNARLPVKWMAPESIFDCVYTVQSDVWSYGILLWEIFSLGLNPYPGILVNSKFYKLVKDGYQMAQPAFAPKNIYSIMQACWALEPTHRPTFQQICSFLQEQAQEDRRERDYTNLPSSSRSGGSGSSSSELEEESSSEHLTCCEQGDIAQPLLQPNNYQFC
The experiment can be described thus: KINOMEscan ScanTK. It is filed as binding.

For the next experiment, the target named is T5, KIT(D816H) (Homo sapiens, UniProt P10721, D816H).
T5 construct: purchased Eurofins DiscoverX KINOMEscan (scanTK)
The experiment can be described thus: KINOMEscan ScanTK. The format is binding.

In a further experiment the target is T6, FRK (Homo sapiens, UniProt P42685).
T6 construct: purchased Eurofins DiscoverX KINOMEscan (scanTK)
The experiment is described as follows: KINOMEscan ScanTK. It is filed as binding.

A further experiment addresses T7, ITK, full length (Homo sapiens, UniProt Q08881).
T7 sequence (Q08881 1-620): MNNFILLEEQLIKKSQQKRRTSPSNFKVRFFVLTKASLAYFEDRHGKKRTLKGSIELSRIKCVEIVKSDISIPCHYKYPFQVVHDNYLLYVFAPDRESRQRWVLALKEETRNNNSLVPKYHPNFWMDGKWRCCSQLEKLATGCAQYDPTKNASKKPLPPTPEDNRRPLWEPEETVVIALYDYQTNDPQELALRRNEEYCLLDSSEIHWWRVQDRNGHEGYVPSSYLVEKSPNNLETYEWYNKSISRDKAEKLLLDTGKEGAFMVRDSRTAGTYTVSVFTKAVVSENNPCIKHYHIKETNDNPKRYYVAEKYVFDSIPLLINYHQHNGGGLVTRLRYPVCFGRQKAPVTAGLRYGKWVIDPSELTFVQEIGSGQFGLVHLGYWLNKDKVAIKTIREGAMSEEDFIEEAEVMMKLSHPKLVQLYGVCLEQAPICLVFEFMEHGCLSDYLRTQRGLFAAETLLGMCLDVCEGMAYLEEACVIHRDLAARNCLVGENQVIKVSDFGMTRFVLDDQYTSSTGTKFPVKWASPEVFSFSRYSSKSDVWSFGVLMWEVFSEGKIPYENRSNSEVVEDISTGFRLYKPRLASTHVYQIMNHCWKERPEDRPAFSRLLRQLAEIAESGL
The experiment can be described thus: PhosphoSens enzymatic IC50 (AssayQuant).

The target of another experiment is T8, FLT3(D835V) (Homo sapiens, UniProt P36888, D835V).
T8 construct: purchased Eurofins DiscoverX KINOMEscan (scanTK)
T8 sequence (P36888 27-993 D835V): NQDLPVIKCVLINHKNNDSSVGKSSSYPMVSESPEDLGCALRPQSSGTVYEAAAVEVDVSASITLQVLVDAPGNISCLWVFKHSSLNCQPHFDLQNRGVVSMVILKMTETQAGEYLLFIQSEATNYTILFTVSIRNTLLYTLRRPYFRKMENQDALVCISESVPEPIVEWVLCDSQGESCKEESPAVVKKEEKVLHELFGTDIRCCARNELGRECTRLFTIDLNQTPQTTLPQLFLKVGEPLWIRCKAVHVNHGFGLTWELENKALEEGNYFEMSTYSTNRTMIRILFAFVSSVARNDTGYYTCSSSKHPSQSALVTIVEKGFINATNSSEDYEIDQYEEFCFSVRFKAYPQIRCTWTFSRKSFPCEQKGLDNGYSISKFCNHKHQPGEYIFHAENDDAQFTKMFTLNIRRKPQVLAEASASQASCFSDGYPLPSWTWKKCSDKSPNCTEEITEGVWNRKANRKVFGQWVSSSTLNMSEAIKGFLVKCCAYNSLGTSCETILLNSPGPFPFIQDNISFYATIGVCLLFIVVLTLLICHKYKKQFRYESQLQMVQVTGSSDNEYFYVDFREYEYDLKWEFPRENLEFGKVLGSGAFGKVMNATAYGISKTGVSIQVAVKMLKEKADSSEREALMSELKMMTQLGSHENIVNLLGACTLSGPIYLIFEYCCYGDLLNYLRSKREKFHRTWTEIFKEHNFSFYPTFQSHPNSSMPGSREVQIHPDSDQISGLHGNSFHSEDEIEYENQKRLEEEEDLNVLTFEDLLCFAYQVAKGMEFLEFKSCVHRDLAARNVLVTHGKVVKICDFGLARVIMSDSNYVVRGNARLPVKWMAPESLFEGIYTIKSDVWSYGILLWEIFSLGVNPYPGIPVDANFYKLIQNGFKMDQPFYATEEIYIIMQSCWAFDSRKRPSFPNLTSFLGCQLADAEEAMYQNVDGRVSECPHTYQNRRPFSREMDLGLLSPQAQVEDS
The experiment can be described thus: KINOMEscan ScanTK. The format is binding.

The next experiment concerns the target T9, SRC (Homo sapiens, UniProt P12931).
T9 construct: purchased Eurofins DiscoverX KINOMEscan (scanTK)
The experiment can be described thus: KINOMEscan ScanTK. The format is binding.

In experiment [1] the target is T10, ABL1(Q252H)-phosphorylated (Homo sapiens, UniProt P00519, Q252H).
T10 construct: purchased Eurofins DiscoverX KINOMEscan (scanTK)
The experiment can be described thus: KINOMEscan ScanTK. The format is binding. The conditions noted are these: for difference in %Control versus reference Ib at 1 µM: read-out: % difference (compound - Ib %Control).

For a further experiment, the target named is T11, EGFR(T790M) (Homo sapiens, UniProt P00533, T790M).
T11 construct: purchased Eurofins DiscoverX KINOMEscan (scanTK)
The experiment can be described thus: KINOMEscan ScanTK. It is filed as binding.

The mark [2] stands for this setting: @1000nM, TRKA, read-out: %Control.
The mark [3] stands for this setting: TRKA, read-out: %Control @1000nM.

Molecules are shown by their SMILES. Where two headings read alike, the source gives them in different places. Bounds are passed on as bounds.

T1 sequence (P04629 33-796): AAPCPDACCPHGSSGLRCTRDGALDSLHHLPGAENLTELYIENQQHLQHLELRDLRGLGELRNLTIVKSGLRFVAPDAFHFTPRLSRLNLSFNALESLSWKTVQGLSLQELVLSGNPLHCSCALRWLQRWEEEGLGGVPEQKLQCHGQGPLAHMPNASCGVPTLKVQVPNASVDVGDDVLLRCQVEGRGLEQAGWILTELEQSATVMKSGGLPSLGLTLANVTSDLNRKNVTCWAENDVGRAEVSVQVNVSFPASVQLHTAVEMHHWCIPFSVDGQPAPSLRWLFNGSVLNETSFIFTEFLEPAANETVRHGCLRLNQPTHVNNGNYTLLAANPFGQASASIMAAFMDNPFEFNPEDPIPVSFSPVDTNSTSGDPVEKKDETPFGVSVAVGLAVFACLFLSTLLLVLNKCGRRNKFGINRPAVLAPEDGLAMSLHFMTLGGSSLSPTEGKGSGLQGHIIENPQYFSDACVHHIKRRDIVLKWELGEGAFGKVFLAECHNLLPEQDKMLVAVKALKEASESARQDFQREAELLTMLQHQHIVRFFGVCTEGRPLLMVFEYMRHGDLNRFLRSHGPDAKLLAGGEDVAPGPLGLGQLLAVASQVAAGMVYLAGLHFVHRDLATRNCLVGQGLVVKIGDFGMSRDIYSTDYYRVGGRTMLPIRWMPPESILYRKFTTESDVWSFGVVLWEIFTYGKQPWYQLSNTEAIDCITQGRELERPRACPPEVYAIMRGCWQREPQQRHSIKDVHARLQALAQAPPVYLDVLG
T2 sequence (P08631 whole entry): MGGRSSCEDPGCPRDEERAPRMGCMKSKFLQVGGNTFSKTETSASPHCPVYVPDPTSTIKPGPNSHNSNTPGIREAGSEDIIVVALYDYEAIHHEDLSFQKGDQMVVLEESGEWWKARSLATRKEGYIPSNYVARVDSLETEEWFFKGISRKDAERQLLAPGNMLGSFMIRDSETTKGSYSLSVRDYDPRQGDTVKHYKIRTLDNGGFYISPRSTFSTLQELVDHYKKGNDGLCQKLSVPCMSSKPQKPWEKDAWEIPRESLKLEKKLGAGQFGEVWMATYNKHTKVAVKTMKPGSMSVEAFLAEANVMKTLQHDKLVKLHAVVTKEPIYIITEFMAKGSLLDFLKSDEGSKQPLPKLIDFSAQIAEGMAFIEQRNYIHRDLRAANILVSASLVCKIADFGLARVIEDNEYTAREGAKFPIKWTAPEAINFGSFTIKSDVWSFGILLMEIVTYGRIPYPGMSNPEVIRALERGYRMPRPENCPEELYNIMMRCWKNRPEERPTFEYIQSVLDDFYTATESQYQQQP
T5 sequence (P10721 26-976 D816H): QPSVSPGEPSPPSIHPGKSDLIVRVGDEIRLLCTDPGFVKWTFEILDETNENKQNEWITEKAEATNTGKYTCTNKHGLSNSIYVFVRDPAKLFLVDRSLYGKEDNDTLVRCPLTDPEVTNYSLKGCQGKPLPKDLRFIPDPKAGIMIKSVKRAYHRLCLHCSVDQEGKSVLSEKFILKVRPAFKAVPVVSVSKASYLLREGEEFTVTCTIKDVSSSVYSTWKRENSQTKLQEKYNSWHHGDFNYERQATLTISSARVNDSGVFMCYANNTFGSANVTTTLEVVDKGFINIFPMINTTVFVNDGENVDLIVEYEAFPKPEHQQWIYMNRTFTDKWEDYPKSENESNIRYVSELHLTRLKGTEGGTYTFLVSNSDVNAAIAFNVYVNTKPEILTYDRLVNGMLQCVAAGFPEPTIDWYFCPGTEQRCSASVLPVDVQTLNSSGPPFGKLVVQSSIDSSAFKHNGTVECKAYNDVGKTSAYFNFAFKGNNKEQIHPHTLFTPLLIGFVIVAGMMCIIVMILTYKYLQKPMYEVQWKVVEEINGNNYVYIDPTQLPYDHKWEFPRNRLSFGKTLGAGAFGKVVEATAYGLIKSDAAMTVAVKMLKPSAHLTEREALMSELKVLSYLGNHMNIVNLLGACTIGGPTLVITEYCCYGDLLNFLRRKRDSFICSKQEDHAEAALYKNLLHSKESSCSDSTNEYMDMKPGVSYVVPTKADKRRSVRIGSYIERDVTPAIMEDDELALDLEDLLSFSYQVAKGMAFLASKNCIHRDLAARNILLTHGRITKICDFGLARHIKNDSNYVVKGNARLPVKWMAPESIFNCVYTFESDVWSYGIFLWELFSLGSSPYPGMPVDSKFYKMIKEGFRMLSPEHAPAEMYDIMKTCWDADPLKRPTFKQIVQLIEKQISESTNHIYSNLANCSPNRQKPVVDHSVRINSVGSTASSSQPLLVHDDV
T3 sequence (P04626 23-1255): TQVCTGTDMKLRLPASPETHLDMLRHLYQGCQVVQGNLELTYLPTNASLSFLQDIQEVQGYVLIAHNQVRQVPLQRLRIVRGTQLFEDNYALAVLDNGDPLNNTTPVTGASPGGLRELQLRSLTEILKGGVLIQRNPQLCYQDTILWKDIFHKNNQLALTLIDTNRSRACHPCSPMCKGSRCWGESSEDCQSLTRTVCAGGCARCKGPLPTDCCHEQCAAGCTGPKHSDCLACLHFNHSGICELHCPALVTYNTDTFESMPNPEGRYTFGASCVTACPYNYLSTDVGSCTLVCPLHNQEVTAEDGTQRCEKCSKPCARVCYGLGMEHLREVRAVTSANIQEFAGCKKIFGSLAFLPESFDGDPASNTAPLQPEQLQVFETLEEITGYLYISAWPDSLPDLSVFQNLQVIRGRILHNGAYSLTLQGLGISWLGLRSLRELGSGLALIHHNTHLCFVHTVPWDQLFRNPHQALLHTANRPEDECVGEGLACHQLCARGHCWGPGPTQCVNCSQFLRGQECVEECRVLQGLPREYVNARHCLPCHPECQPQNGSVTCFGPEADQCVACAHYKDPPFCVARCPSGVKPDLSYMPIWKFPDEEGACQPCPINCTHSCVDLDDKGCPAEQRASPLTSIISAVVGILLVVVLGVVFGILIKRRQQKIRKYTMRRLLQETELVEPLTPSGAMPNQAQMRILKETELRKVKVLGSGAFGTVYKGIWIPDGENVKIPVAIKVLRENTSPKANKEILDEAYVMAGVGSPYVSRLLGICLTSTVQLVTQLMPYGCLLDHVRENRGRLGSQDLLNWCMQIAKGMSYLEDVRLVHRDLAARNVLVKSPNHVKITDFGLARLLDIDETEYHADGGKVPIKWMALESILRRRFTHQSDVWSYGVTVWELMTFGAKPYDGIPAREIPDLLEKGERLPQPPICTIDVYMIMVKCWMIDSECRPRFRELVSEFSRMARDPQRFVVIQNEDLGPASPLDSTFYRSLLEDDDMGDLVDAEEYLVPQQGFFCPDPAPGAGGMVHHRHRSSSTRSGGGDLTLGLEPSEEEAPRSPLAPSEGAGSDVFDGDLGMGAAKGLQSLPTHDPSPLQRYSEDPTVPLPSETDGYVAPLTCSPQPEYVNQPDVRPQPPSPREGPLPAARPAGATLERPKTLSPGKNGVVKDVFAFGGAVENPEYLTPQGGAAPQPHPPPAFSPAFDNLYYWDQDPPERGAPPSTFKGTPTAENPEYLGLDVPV
T9 sequence (P12931 whole entry): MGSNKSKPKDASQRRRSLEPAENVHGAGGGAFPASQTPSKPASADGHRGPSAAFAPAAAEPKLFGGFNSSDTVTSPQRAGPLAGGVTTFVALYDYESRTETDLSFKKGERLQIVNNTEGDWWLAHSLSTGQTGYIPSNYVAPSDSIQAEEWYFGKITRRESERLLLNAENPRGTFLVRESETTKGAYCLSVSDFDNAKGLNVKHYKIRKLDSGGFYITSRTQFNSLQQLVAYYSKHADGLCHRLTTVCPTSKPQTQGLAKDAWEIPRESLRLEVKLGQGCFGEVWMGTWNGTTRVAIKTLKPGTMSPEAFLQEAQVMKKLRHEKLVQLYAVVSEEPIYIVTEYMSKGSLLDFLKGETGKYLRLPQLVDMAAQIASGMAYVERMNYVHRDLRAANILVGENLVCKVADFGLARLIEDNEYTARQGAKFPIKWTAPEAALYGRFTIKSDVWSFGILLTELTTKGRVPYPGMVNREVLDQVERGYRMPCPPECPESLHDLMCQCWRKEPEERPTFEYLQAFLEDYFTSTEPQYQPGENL
T6 sequence (P42685 whole entry): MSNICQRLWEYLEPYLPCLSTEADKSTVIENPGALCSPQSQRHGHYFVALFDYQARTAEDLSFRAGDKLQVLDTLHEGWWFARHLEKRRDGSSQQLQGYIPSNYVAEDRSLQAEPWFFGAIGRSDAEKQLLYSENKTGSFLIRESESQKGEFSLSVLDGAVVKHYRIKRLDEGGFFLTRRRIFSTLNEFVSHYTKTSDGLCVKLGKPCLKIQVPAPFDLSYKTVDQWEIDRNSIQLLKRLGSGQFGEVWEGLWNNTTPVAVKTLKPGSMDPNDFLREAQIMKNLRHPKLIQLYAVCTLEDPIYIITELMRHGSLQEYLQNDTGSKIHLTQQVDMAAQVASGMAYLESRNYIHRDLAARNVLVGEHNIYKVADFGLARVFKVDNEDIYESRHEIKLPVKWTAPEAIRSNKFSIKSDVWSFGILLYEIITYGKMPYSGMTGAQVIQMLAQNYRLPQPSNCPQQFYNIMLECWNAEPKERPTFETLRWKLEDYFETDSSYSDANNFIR
Excerpt for ITK, full length: Biochemical enzymatic IC50 data were generated by AssayQuant Technologies (Marlborough, MA) using the PhosphoSens Platform. […] Reaction rate versus log [inhibitor concentration] data were fitted to the four-parameter logistic equation [drawing 1]

Take `C=CC(=O)N1CCC[C@@H](n2nc(-c3ccc(Oc4ccccc4)cc3)c3c(N)ncnc32)C1` [Compound 1g, Ibrutinib, reference compound]: the remaining binding at 1 µM on TRKA (read-out: %Control) was found to be 85%; at TRKA (read-out: %Control @1000nM), 85%; at HCK (@1000nM, read-out: %Control) it was 5.2%; on HCK (read-out: %Control @1000nM), 5.2%; at ERBB2 (@1000nM, read-out: %Control), 0%; at ERBB2 (read-out: %Control @1000nM), 0%. In addition, the remaining binding at 1 µM stood at 77% on CSF1R-autoinhibited (@1000nM, read-out: %Control); 77% on CSF1R-autoinhibited (read-out: %Control @1000nM); 100% at KIT(D816H) (@1000nM, read-out: %Control); 100% at KIT(D816H) (read-out: %Control @1000nM); 9.3% on FRK (@1000nM, read-out: %Control); 9.3% on FRK (read-out: %Control @1000nM). Moreover, on ERBB2 (ScanTK, 1 μM), the inhibition (usually the change of the read-out against control, counted positive when it falls) at 1 µM is more than 99%.
In the case of `Cc1cnc(S(C)(=O)=O)nc1N1CCCC(n2nc(-c3ccc(Oc4ccccc4)cc3)c3c(N)ncnc32)C1` (stereo not shown) [Compound 8a, 1-(1-(5-Methyl-2-(methylsulfonyl)pyrimidin-4-yl)piperidin-3-yl)-3-(4-phenoxyphenyl)-1H-pyrazolo[3,4-d]pyrimidin-4-amine], the difference in % of control versus compound Ib at 1 µM is 12% on TRKA (@1000nM, TRKA) and 69.5% at EGFR(T790M) (@1000nM). In addition, the remaining binding at 1 µM on TRKA (setting [2]) came out at 97%; at TRKA (setting [3]), 97%; at HCK (@1000nM, read-out: %Control), 6.5%; on HCK (read-out: %Control @1000nM), 6.5%; on ERBB2 (@1000nM, read-out: %Control), 53%; on ERBB2 (read-out: %Control @1000nM) it was 53%. The remaining binding at 1 µM at CSF1R-autoinhibited (@1000nM, read-out: %Control) was 88%; at CSF1R-autoinhibited (read-out: %Control @1000nM), 88%; at FLT3(D835V) (@1000nM, read-out: %Control), 30%; at FLT3(D835V) (read-out: %Control @1000nM), 30%; at SRC (@1000nM, read-out: %Control), 17%; on SRC (read-out: %Control @1000nM), 17%. Moreover, the remaining binding at 1 µM at KIT(D816H) (@1000nM, read-out: %Control) worked out at 87%; at KIT(D816H) (read-out: %Control @1000nM), 87%; at FRK (@1000nM, read-out: %Control) it was 48%; at FRK (read-out: %Control @1000nM), 48%; in experiment [1] (@1000nM, read-out: %Control), 98%; in experiment [1] (read-out: %Control @1000nM), 98%. The remaining binding at 1 µM at EGFR(T790M) (@1000nM, read-out: %Control) stood at 70%; on EGFR(T790M) (read-out: %Control @1000nM) it was 70%. Further, the difference in %Control from compound Ib at 1 µM on HCK (@1000nM) was 1.3%. Further, the IC50 (as a rule, the concentration needed to halve the response being measured) at ITK, full length was more than 1000 nM. For the same compound, the difference in %Control versus compound Ib at 1 µM at ERBB2 (@1000nM) turned out to be 53%; on CSF1R-autoinhibited (@1000nM), 11%; at FLT3(D835V) (@1000nM), 20.1%; on FRK (@1000nM) it was 38.7%. In addition, the difference in %Control versus reference Ib at 1 µM in experiment [1] (@1000nM) was found to be 4%.
Regarding `CCOC(=O)c1cnc(S(C)(=O)=O)nc1N1CCC[C@@H](n2nc(-c3ccc(Oc4ccccc4)cc3)c3c(N)ncnc32)C1` [Compound 8c, Ethyl (R)-4-(3-(4-Amino-3-(4-phenoxyphenyl)-1H-pyrazolo[3,4-d]pyrimidin-1-yl)piperidin-1-yl)-2-(methylsulfonyl)pyrimidine-5-carboxylate], the difference in % of control versus compound Ib at 1 µM on TRKA (@1000nM, TRKA) was 8%; on EGFR(T790M) (@1000nM), 72.5%. Besides, the remaining binding at 1 µM at TRKA (setting [2]) was 93%; on TRKA (setting [3]) it was 93%; on HCK (@1000nM, read-out: %Control), 28%; at HCK (read-out: %Control @1000nM), 28%; on ERBB2 (@1000nM, read-out: %Control), 48%; at ERBB2 (read-out: %Control @1000nM), 48%. Besides, the remaining binding at 1 µM was found to be 97% on CSF1R-autoinhibited (@1000nM, read-out: %Control); 97% at CSF1R-autoinhibited (read-out: %Control @1000nM); 56% on FLT3(D835V) (@1000nM, read-out: %Control); 56% at FLT3(D835V) (read-out: %Control @1000nM); 66% on SRC (@1000nM, read-out: %Control); 66% at SRC (read-out: %Control @1000nM). Besides, the remaining binding at 1 µM came to 55% at KIT(D816H) (@1000nM, read-out: %Control); 55% at KIT(D816H) (read-out: %Control @1000nM); 76% at FRK (@1000nM, read-out: %Control); 76% at FRK (read-out: %Control @1000nM); 92% in experiment [1] (@1000nM, read-out: %Control); 92% in [1] (read-out: %Control @1000nM). For the same compound, the remaining binding at 1 µM came out at 73% at EGFR(T790M) (@1000nM, read-out: %Control) and 73% on EGFR(T790M) (read-out: %Control @1000nM). Further, the difference in %Control from compound Ib at 1 µM at HCK (@1000nM) is 22.8%. The difference in %Control versus compound Ib at 1 µM at ERBB2 (@1000nM) is 48%; on CSF1R-autoinhibited (@1000nM), 20%; on FLT3(D835V) (@1000nM) it was 46.1%; at FRK (@1000nM) it was 66.7%. In addition, the difference in %Control versus reference Ib at 1 µM in [1] (@1000nM) is -2%.
